{"source": "ChEMBL document CHEMBL3045702", "about": "“Cytotoxic lipid esters from Peucedanum ledebourielloides” (Med Chem Res, 2010)", "assay_type_in_all_cases": "functional, cell-based", "key": {"[1]": {"test_system": "SGC-7901", "assay": "Cytotoxicity against Homo sapiens (human) SGC7901 cells by MTT assay"}, "[2]": {"test_system": "HL-60", "assay": "Cytotoxicity against Homo sapiens (human) HL60 cells by MTT assay"}, "[3]": {"test_system": "HT-29", "assay": "Cytotoxicity against Homo sapiens (human) HT-29 cells by MTT assay"}}, "data": [{"smiles": "CCCCCCCCCCCCCCCC(=O)OCC(CO[C@@H]1O[C@H](CO)[C@@H](O)[C@H](O)[C@H]1O)OC(=O)CCCCCCCCCCCCCCC", "note": "(some centres undefined)", "values": [{"measurement": "IC50", "setting": "[1]", "result": 4.9, "unit": "µg/mL"}, {"measurement": "IC50", "setting": "[2]", "result": 27.7, "unit": "µg/mL"}, {"measurement": "IC50", "setting": "[3]", "result": 0.21, "unit": "µg/mL"}]}, {"smiles": "CCCCCCCCCCCCCCCC(=O)OCCCCCCOC(=O)CCCCCCCCCCCCCCC", "values": [{"measurement": "IC50", "setting": "[1]", "result": 1.6, "unit": "µg/mL"}, {"measurement": "IC50", "setting": "[2]", "result": 0.49, "unit": "µg/mL"}, {"measurement": "IC50", "setting": "[3]", "result": 34.2, "unit": "µg/mL"}]}, {"smiles": "O=c1[nH]cc(F)c(=O)[nH]1", "note": "[FLUOROURACIL]", "values": [{"measurement": "IC50", "setting": "[1]", "result": 0.58, "unit": "µg/mL"}, {"measurement": "IC50", "setting": "[2]", "result": 25.4, "unit": "µg/mL"}, {"measurement": "IC50", "setting": "[3]", "result": 10.3, "unit": "µg/mL"}]}]}
